Experimental findings from US8623857B2, “N-phenyl imidazole carboxamide inhibitors of 3-phosphoinositide-dependent protein kinase-1” (Merck Sharp & Dohme Corp., priority 2010, dated 2014) are described below.

SMILES strings stand for the structures.

The first assay concerns the target T1, recombinant human PDK1 (Homo sapiens, UniProt O15530).
T1 construct: containing amino acids 51-556 of the human PDK1 enzyme; made in house; host or cells: Sf9 insect cells
T1 sequence (O15530 51-556): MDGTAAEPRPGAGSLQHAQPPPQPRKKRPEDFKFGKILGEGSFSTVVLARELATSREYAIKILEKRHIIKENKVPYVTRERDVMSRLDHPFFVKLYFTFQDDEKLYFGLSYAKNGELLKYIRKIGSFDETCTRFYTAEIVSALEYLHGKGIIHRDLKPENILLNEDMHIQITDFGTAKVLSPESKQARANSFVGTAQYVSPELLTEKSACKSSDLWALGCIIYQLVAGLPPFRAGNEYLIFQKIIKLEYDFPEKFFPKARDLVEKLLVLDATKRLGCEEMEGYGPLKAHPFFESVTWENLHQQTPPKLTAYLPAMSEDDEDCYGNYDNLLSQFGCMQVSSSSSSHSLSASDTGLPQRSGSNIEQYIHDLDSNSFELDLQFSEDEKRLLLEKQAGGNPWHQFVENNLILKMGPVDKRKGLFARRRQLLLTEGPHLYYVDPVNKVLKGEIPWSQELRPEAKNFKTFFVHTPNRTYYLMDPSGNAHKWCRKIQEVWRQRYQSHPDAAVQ
Kind of assay: PDK1 IMAP fluorescence polarization assay (inhibition of peptide substrate phosphorylation). The conditions noted are these: Table 6; 10 nM PDK1 enzyme, 100 nM peptide substrate, 100 nM PIFtide, 2.5 uM ATP, 1.5 hours. The format is biochemical. A general note: In fluorescence polarisation assays a small probe gives low polarisation when free and higher when bound to something large.
As a reminder, the IC50 is the concentration that gives 50% inhibition. For `NCC1CCN(c2c(F)cccc2NC(=O)c2nc(-c3cc(NCc4ccc(F)cc4)nc(N)n3)c[nH]2)CC1` [Compound 71, 4-[2-amino-6-[[(4-fluorophenyl)methyl]amino]-4-pyrimidinyl]-N-[2-[4-(aminomethyl)-1-piperidinyl]-3-fluorophenyl]-1H-imidazole-2-carboxamide], the IC50 is 0.001 to 0.05 µM.
Turning to `N[C@@H]1CCCN(c2c(F)cccc2NC(=O)c2nc(-c3ccncc3)c[nH]2)C1` [Compound 10, N-[2-(3(R)-amino-1-piperidinyl)-3-fluorophenyl]-4-(4-pyridinyl)-1H-imidazole-2-carboxamide], the IC50 is 0.251 to 1 µM.
In the case of `NCC1CCN(c2c(F)cccc2NC(=O)c2nc(-c3ccnc(N)c3)c[nH]2)CC1` [Compound 27, N-[2-[4-(aminomethyl)-1-piperidinyl]-3-fluorophenyl]-4-(2-amino-4-pyridinyl)-1H-imidazole-2-carboxamide], the concentration for half-maximal inhibition (IC50) lay within 0.001 to 0.05 µM.
In the case of `NCC1CCN(c2c(F)cccc2NC(=O)c2nc(-c3cccc(Cl)c3)c[nH]2)CC1` [Compound 34, N-[2-[4-(aminomethyl)-1-piperidinyl]-3-fluorophenyl]-4-(3-chlorophenyl)-1H-imidazole-2-carboxamide], the IC50 was in the range of 0.051 to 0.25 µM.
With `NCC1CCN(c2c(NC(=O)c3nc(-c4ccnc(N)c4)c[nH]3)ccc(F)c2F)CC1` [Compound 28, N-[2-[4-(aminomethyl)-1-piperidinyl]-3,4-difluorophenyl]-4-(2-amino-4-pyridinyl)-1H-imidazole-2-carboxamide], the IC50 was 0.051 to 0.25 µM.
On the same count and under the same terms, to `Cc1cc(-c2c[nH]c(C(=O)Nc3cccc(F)c3N3CC4CCC(C3)N4)n2)ccn1` [Compound 54, N-[2-(3,8-diazabicyclo[3.2.1]oct-3-yl)-3-fluorophenyl]-4-(2-methyl-4-pyridinyl)-1H-imidazole-2-carboxamide] belongs 1 to 5 µM; to `Cc1cc(-c2c[nH]c(C(=O)Nc3cccc(F)c3N3CCC(C(C)(C)N)CC3)n2)ccn1` [Compound 67, N-[2-[4-(1-amino-1-methylethyl)-1-piperidinyl]-3-fluorophenyl]-4-(2-methyl-4-pyridinyl)-1H-imidazole-2-carboxamide], 0.051 to 0.25 µM.
As to `NCC1CCN(c2c(F)cccc2NC(=O)c2nc(-c3cc(NCc4ccc(C(F)(F)F)cc4)nc(N)n3)c[nH]2)CC1` [Compound 70, N-[2-[4-(aminomethyl)-1-piperidinyl]-3-fluorophenyl]-4-[2-amino-6-[[[4-(trifluoromethyl)phenyl]methyl]amino]-4-pyrimidinyl]-1H-imidazole-2-carboxamide], the IC50 lay in the range of 0.051 to 0.25 µM.
`Cc1cc(-c2c[nH]c(C(=O)Nc3cccc(F)c3N3CCC(C(=O)N4CCOC(C(C)N)C4)CC3)n2)ccn1` (stereo not drawn) [Compound 95, N-[2-[4-[[2-(1-aminoethyl)-4-morpholinyl]carbonyl]-1-piperidinyl]-3-fluorophenyl]-4-(2-methyl-4-pyridinyl)-1H-imidazole-2-carboxamide]: the half-maximal inhibitory concentration (IC50) was in the range of 0.251 to 1 µM.
In the case of `NC(=O)N[C@@H]1CCCN(c2c(F)cccc2NC(=O)c2nc(Br)c[nH]2)C1` [Compound 15, N-[2-[3(R)-[(aminocarbonyl)amino]-1-piperidinyl]-3-fluorophenyl]-4-bromo-1H-imidazole-2-carboxamide], the IC50 fell in the range of 1 to 5 µM.
On to `N[C@@H]1CCCN(c2c(F)cccc2NC(=O)c2nc(Br)c[nH]2)C1` [Compound 12, N-[2-(3(R)-amino-1-piperidinyl)-3-fluorophenyl]-4-bromo-1H-imidazole-2-carboxamide], for which the concentration for half-maximal inhibition (IC50) is 0.051 to 0.25 µM.
Regarding `N[C@@H]1CCCN(c2c(F)cccc2NC(=O)c2nc(-c3cnn(Cc4cccs4)c3)c[nH]2)C1` [Compound 5, N-[2-(3(R)-amino-1-piperidinyl)-3-fluorophenyl]-4-[1-(2-thienylmethyl)-1H-pyrazol-4-yl]-1H-imidazole-2-carboxamide], the IC50 fell in the range of 0.051 to 0.25 µM.
Regarding `Cc1cc(-c2c[nH]c(C(=O)Nc3cccc(F)c3N3CCC4(CCCNC4)CC3)n2)ccn1` [Compound 46, N-[2-(2,9-diazaspiro[5,5]undec-9-yl)-3-fluorophenyl]-4-(2-methyl-4-pyridinyl)-1H-imidazole-2-carboxamide], the IC50 fell in the range of 0.051 to 0.25 µM.
`Cn1cc(-c2c[nH]c(C(=O)Nc3cccc(F)c3N3CCC[C@@H](N)C3)n2)cn1` [Compound 14, N-[2-(3(R)-amino-1-piperidinyl)-3-fluorophenyl]-4-(1-methyl-1H-pyrazol-4-yl)-1H-imidazole-2-carboxamide]: the IC50 was in the range of 0.251 to 1 µM.
On to `CNC(=O)C1CCN(c2c(F)cccc2NC(=O)c2nc(-c3ccnc(C)c3)c[nH]2)CC1` [Compound 59, 1-[2-fluoro-6-[[[4-(2-methyl-4-pyridinyl)-1H-imidazol-2-yl]carbonyl]amino]phenyl]-N-methyl-4-piperidinecarboxamide], for which the IC50 was in the range of 1 to 5 µM.
On the same count and under the same terms, the same measure for `CN(C)CC1CCN(c2ccccc2NC(=O)c2nc(-c3ccnc(N)c3)c[nH]2)CC1` [Compound 40, 4-(2-amino-4-pyridinyl)-N-[2-[4-[(dimethylamino)methyl]-1-piperidinyl]phenyl]-1H-imidazole-2-carboxamide]: 0.251 to 1 µM; for `Cc1cc(-c2c[nH]c(C(=O)Nc3cccc(F)c3N3CCC(C(=O)N4CCC5(CC4)CNC5)CC3)n2)ccn1` [Compound 94, N-[2-[4-(2,7-diazaspiro[3.5]noN-7-ylcarbonyl)-1-piperidinyl]-3-fluorophenyl]-4-(2-methyl-4-pyridinyl)-1H-imidazole-2-carboxamide]: 0.051 to 0.25 µM.
Same read-out and setting: to `N[C@@H]1CCCN(c2c(F)cccc2NC(=O)c2nc(-c3ccnc(C(F)(F)F)c3)c[nH]2)C1` [Compound 19, N-[2-(3(R)-amino-1-piperidinyl)-3-fluorophenyl]-4-[2-(trifluoromethyl)-4-pyridinyl]-1H-imidazole-2-carboxamide] belongs 0.051 to 0.25 µM; to `CN(C)CCOc1ccccc1NC(=O)c1nc(-c2cnn(Cc3ccccc3)c2)c[nH]1` [Compound 6, N-[2-[2-(dimethylamino)ethoxy]phenyl]-4-[1-(phenylmethyl)-1H-pyrazol-4-yl]-1H-imidazole-2-carboxamide], 1 to 5 µM; to `CNc1cc(-c2c[nH]c(C(=O)Nc3cccc(F)c3N3CCC(CN)CC3)n2)ccn1` [Compound 32, N-[2-[4-(aminomethyl)-1-piperidinyl]-3-fluorophenyl]-4-[2-(methylamino)-4-pyridinyl]-1H-imidazole-2-carboxamide], 0.001 to 0.05 µM.
For `NCC1CCN(c2c(F)cccc2NC(=O)c2nc(-c3cn[nH]c3)c[nH]2)CC1` [Compound 53, N-[2-[4-(aminomethyl)-1-piperidinyl]-3-fluorophenyl]-4-(1H-pyrazol-4-yl)-1H-imidazole-2-carboxamide], the IC50 lay within 0.001 to 0.05 µM.
On the same count and under the same terms, the same measure for `Cc1ccc(C)c(-c2c[nH]c(C(=O)Nc3cccc(F)c3N3CCC(CN)CC3)n2)c1` [Compound 37, N-[2-[4-(aminomethyl)-1-piperidinyl]-3-fluorophenyl]-4-(2,5-dimethylphenyl)-1H-imidazole-2-carboxamide]: 1 to 5 µM.

Staying with this assay, now noted: Table 10; compounds 97-132.
Take `CC1CCC(C(=O)NC2CCCCC2)CN1c1cc(-c2c[nH]c(C(=O)Nc3cc(N)ccc3N3CCC4(CCCNC4)CC3)n2)nc(N)n1` (racemic) [Compound 112, 1-(2-amino-6-(2-(5-amino-2-(2,9-diazaspiro[5.5]undecan-9-yl)phenylcarbamoyl)-1H-imidazol-4-yl)pyrimidin-4-yl)-N-cyclohexyl-6-methylpiperidine-3-carboxamide]: the IC50 was 0.001 to 0.05 µM.
In the case of `CNc1nc(-c2c[nH]c(C(=O)Nc3ccccc3N3CCNCC3)n2)cc(N2CCN(C(=O)OCc3ccccc3)CC2)n1` [Compound 105, benzyl 4-(2-(methylamino)-6-(2-(2-(piperazin-1-yl)phenylcarbamoyl)-1H-imidazol-4-yl)pyrimidin-4-yl)piperazine-1-carboxylate], the IC50 is 1 to 5 µM.
The same measure, in the same setting: the same measure for `CNc1nc(-c2c[nH]c(C(=O)Nc3cccc(F)c3N3CCC(CN)CC3)n2)cc(N2CC[C@@](COC)(C(=O)NC3CCCCC3)C2)n1` [Compound 132, (R)—N-(2-(4-(aminomethyl)piperidin-1-yl)-3-fluorophenyl)-4-(6-(3-(cyclohexylcarbamoyl)-3-(methoxymethyl)pyrrolidin-1-yl)-2-(methylamino)pyrimidin-4-yl)-1H-imidazole-2-carboxamide]: 0.001 to 0.05 µM; for `CNc1nc(-c2c[nH]c(C(=O)Nc3cccc(F)c3N3CCC(CN)CC3)n2)cc(N2C[C@@H](C(=O)NC3CCCCC3)CC[C@H]2C)n1` [Compound 115, (3S,6R)-1-(6-(2-(2-(4-(aminomethyl)piperidin-1-yl)-3-fluorophenylcarbamoyl)-1H-imidazol-4-yl)-2-(methylamino)pyrimidin-4-yl)-N-cyclohexyl-6-methylpiperidine-3-carboxamide]: 0.001 to 0.05 µM.
On to `CNc1nc(-c2c[nH]c(C(=O)Nc3cccc(F)c3N3CCO[C@H](CN)C3)n2)cc(N2CC(C(=O)NC3CCCCC3)CCC2C)n1` (mixture of isomers) [Compound 111, 1-(6-(2-(2-((R)-2-(aminomethyl)morpholino)-3-fluorophenylcarbamoyl)-1H-imidazol-4-yl)-2-(methylamino)pyrimidin-4-yl)-N-cyclohexyl-6-methylpiperidine-3-carboxamide], for which the IC50 lay within 0.001 to 0.05 µM.
